Experimental findings from ChEMBL document CHEMBL3751828, “Discovery of imidazo[1,2-a]-pyridine inhibitors of pan-PI3 kinases that are efficacious in a mouse xenograft model” (Bioorg Med Chem Lett, 2016) are described below.

A short description of data set [1]: Cmax in CD rat at […], po by LC-MS analysis. Details: dose 2.5 mg/kg, route oral. In kind it is ADME, organism-based. The following applies: in vivo.
Data set [2] can be described thus: AUC (0 to last) in CD rat at […], po by LC-MS analysis. In kind it is ADME, organism-based. The following applies: in vivo. Details: dose 2.5 mg/kg, route oral, time 0 - last.
The nature of data set [3]: Apparent permeability of the compound from apical to basolateral side in human Caco2 cells. In kind it is ADME, cell-based. The following applies: Caco-2. (In general: Caco-2 monolayers are a common model of the intestinal barrier.)

Take `CC(=O)Nc1cn2cc(-c3cnc(N)c(OC(C)C)n3)ccc2n1`: in data set [1], the concentration peaked (Cmax) at 1.3 µM. The molecule also gave an area under the curve AUC(0-t) in data set [2] of 13 µM·h.

`CCOc1nc(-c2ccc3nc(NC(C)=O)cn3c2)cnc1N` yielded a Cmax in data set [1] of 3.6 µM. The same molecule had an area under the curve AUC(0-t) in data set [2] of 7 µM·h.

In data set [1], `CC(=O)Nc1cn2cc(-c3cnc(N)c(OCC(F)(F)F)n3)ccc2n1` came in with a maximum concentration (Cmax) of 1.5 µM. This molecule returned an exposure AUC(0-t) in data set [2] of 4 µM·h.

The molecule `COc1nc(-c2ccc3nc(NC(C)=O)cn3c2)cnc1N` registered a maximum concentration (Cmax) in data set [1] of 8.9 µM. Further, the AUC(0-t) in data set [2] amounted to 15 µM·h.

`CC(=O)Nc1cn2cc(-c3cnc(N)c(OC(C)C(F)(F)F)n3)ccc2n1` (racemic): in data set [3], the Papp A→B is 41 ×10⁻⁶ cm/s. In addition, the highest concentration (Cmax) in data set [1] worked out at 3 µM. In data set [2], this molecule displayed an exposure AUC(0-t) of 49 µM·h.

`COCCOc1nc(-c2ccc3nc(NC(C)=O)cn3c2)cnc1N`: the concentration in data set [1] peaked (Cmax) at 4 µM. Further, the area under the curve AUC(0-t) in data set [2] is 14 µM·h.

The Cmax is the maximum level reached in the sampled fluid or tissue. One may read the AUC(0-t) as the area under the concentration-time curve up to a stated or last time point. A word on the Papp A→B: it is the apparent permeability from the apical to the basolateral side of a cell layer.
